Literature values in patent publication US20190250088A1, “Methods and Apparatus for Predicting and Confirming Drug-Induced Thrombocytopenia Through Particle Detection with Dynamic Light Scattering” (LightIntegra Technology Inc., priority 2018, published 2019).

Settings: patients recently exposed to heparin; background statement

Substance | HIT occurs in patients receiving the drug (incidence of heparin-induced thrombocytopenia)
low molecular weight heparin [low molecular weight heparin (LMWH)] | < 1%
unfractionated heparin [unfractionated heparin (UFH)] | up to 5%
